Experimental data taken from patent publication US20030171329A1, “Stable compositions comprising tezacitabine” (priority 2002, published 2003).

Assay: Stability of FMdC at various concentrations in 100 mM sodium phosphate pH 9 (Example 3, HPLC)
Format: physicochemical
Experimental: In this study the stability of FMdC at various concentrations in 100 mM sodium phosphate pH 9 was studied. FMdC solutions were made up and pH adjusted to target with sodium hydroxide. Solution samples were placed in stoppered glass vials and stored at the various temperatures. […] Flow rate was 1.0 mL/min. FMdC solution samples were diluted in mobile phase to a nominal FMdC concentration of 80 μg/mL, then injected onto the column in a volume of 10 μL. Detection was by UV at 268 nm.

[1] = FMdC 2 mg/mL, 100 mM sodium phosphate pH 9, 25° C., 0 mon
[2] = FMdC 2 mg/mL, 100 mM sodium phosphate pH 9, 25° C., 6 mon
[3] = FMdC 2 mg/mL, 100 mM sodium phosphate pH 9, 25° C., 9 mon
[4] = FMdC 2 mg/mL, 100 mM sodium phosphate pH 9, 25° C., 20 mon
[5] = FMdC 2 mg/mL, 100 mM sodium phosphate pH 9, 40° C., 0 mon
[6] = FMdC 2 mg/mL, 100 mM sodium phosphate pH 9, 40° C., 3 mon
[7] = FMdC 2 mg/mL, 100 mM sodium phosphate pH 9, 40° C., 6 mon
[8] = FMdC 2 mg/mL, 100 mM sodium phosphate pH 9, 40° C., 9 mon
[9] = FMdC 2 mg/mL, 100 mM sodium phosphate pH 9, 50° C., 0 mon
[10] = FMdC 2 mg/mL, 100 mM sodium phosphate pH 9, 50° C., 0.5 mon
[11] = FMdC 2 mg/mL, 100 mM sodium phosphate pH 9, 50° C., 1.0 mon
[12] = FMdC 2 mg/mL, 100 mM sodium phosphate pH 9, 50° C., 2.0 mon
[13] = FMdC 2 mg/mL, 100 mM sodium phosphate pH 9, 50° C., 3.0 mon
[14] = FMdC 10 mg/mL, 100 mM sodium phosphate pH 9, 25° C., 0 mon
[15] = FMdC 10 mg/mL, 100 mM sodium phosphate pH 9, 25° C., 2.8 mon
[16] = FMdC 10 mg/mL, 100 mM sodium phosphate pH 9, 25° C., 4.0 mon
[17] = FMdC 10 mg/mL, 100 mM sodium phosphate pH 9, 25° C., 6.5 mon
[18] = FMdC 10 mg/mL, 100 mM sodium phosphate pH 9, 25° C., 7.9 mon
[19] = FMdC 10 mg/mL, 100 mM sodium phosphate pH 9, 25° C., 16 mon
[20] = FMdC 10 mg/mL, 100 mM sodium phosphate pH 9, 25° C., 23 mon
[21] = FMdC 10 mg/mL, 100 mM sodium phosphate pH 9, 40° C., 0 mon
[22] = FMdC 10 mg/mL, 100 mM sodium phosphate pH 9, 40° C., 2.0 mon
[23] = FMdC 10 mg/mL, 100 mM sodium phosphate pH 9, 40° C., 3.0 mon
[24] = FMdC 10 mg/mL, 100 mM sodium phosphate pH 9, 40° C., 3.7 mon
[25] = FMdC 10 mg/mL, 100 mM sodium phosphate pH 9, 40° C., 4.1 mon
[26] = FMdC 10 mg/mL, 100 mM sodium phosphate pH 9, 50° C., 0 mon
[27] = FMdC 10 mg/mL, 100 mM sodium phosphate pH 9, 50° C., 0.3 mon
[28] = FMdC 10 mg/mL, 100 mM sodium phosphate pH 9, 50° C., 0.7 mon
[29] = FMdC 10 mg/mL, 100 mM sodium phosphate pH 9, 50° C., 0.9 mon
[30] = FMdC 10 mg/mL, 100 mM sodium phosphate pH 9, 50° C., 1.4 mon
[31] = FMdC 10 mg/mL, 100 mM sodium phosphate pH 9, 50° C., 2.1 mon

Nc1ccn([C@@H]2O[C@H](CO)[C@@H](O)/C2=C\F)c(=O)n1 [FMdC, (E)-2′-deoxy-2′-(fluoromethylene)cytidine]
stability in words (25° C., 2 and 10 mg/mL in 100 mM sodium phosphate pH 9): stable for over eighteen months | FMdC [1]: 100.0 % of initial | pH [1]: 9.18 | FMdC [2]: 100.0 % of initial | pH [2]: 9.00 | FMdC [3]: 100.5 % of initial | pH [3]: 9.03 | FMdC [4]: 100.0 % of initial | pH [4]: 9.00 | FMdC [5]: 100.0 % of initial | pH [5]: 9.18 | FMdC [6]: 97.0 % of initial | pH [6]: 8.89 | FMdC [7]: 92.5 % of initial | pH [7]: 8.55 | FMdC [8]: 88.4 % of initial | pH [8]: 8.44 | FMdC [9]: 100.0 % of initial | pH [9]: 9.18 | FMdC [10]: 100.0 % of initial | pH [10]: 8.84 | FMdC [11]: 97.4 % of initial | pH [11]: 8.84 | FMdC [12]: 88.7 % of initial | pH [12]: 8.39 | FMdC [13]: 80.4 % of initial | pH [13]: 8.16 | FMdC [14]: 100.0 % of initial | pH [14]: 9.29 | FMdC [15]: 98.9 % of initial | pH [15]: 9.25 | FMdC [16]: 100.4 % of initial | pH [16]: 9.17 | FMdC [17]: 99.3 % of initial | pH [17]: 9.09 | FMdC [18]: 98.1 % of initial | pH [18]: 9.06 | FMdC [19]: 97.3 % of initial | pH [19]: 8.73 | FMdC [20]: 97.1 % of initial | pH [20]: 8.74 | FMdC [21]: 100.0 % of initial | pH [21]: 9.29 | FMdC [22]: 98.1 % of initial | pH [22]: 8.60 | FMdC [23]: 95.8 % of initial | pH [23]: 8.40 | FMdC [24]: 96.9 % of initial | pH [24]: 8.19 | FMdC [25]: 94.9 % of initial | pH [25]: 8.08 | FMdC [26]: 100.0 % of initial | pH [26]: 9.29 | FMdC [27]: 99.6 % of initial | pH [27]: 8.75 | FMdC [28]: 94.4 % of initial | pH [28]: 8.24 | FMdC [29]: 89.5 % of initial | pH [29]: 7.91 | FMdC [30]: 82.0 % of initial | pH [30]: 7.52 | FMdC [31]: 67.4 % of initial | pH [31]: 7.01
